Consider 13 compounds from patent US8927550B2, “Heterocyclic compounds as CCR1 receptor antagonists” (Boehringer Ingelheim International GmbH, priority 2009, dated 2015).

Each structure is given as a SMILES string.

The target of the experiment is T1, CCR1 (Homo sapiens, UniProt P32246).
T1 construct: host or cells: Non-adherent cells
T1 sequence (P32246 1-355): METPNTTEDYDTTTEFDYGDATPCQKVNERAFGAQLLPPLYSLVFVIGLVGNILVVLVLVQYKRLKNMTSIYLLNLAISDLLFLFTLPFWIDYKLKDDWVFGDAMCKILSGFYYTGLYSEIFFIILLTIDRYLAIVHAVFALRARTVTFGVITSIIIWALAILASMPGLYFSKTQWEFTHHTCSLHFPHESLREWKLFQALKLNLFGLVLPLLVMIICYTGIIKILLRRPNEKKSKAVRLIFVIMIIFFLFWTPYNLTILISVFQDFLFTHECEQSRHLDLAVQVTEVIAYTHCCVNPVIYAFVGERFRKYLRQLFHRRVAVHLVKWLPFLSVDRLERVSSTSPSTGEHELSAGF
Put plainly: Calcium flux in CCR1 transfected cells, Method B (Calcium 4 dye, HAMAMATSU FDSS6000), MIP-1alpha at EC80. Type of experiment: cell-based. The note with it: cells stably expressing recombinant CCR1 and G-alpha-16, 30 minutes at 37 C then 30 minutes at room temperature. The protocol: Compounds are assessed for the ability to block the interaction of CCR1 and MIP-1α in a functional cellular assay measuring calcium flux in CCR1 transfected cells.
Method B: Non-adherent cells purchased from Chemicon Corporation (HTS005C), stably expressing recombinant CCR1 and G-alpha-16 are grown in RPMI 1640 medium (Mediatech 10-080-CM) supplemented with 10% FBS, 0.4 mg/mL Geneticin and penicillin/streptomycin. On the day of the assay, the cells are loaded with Calcium 4 dye (Molecular Devices R7448) with Probenecid (Invitrogen P346400) at 8E5 cells/mL for 1 hour at room temperature. After 1 hour, they are seeded in a 384-well tissue culture-treated plate at a density of 20,000 cells/well. Appropriately diluted test compound is added to the well to achieve a top concentration of 3,000 nM (diluted 4-fold with 10 doses total). The final concentration of DMSO is 1%. The buffer is HBSS (Invitrogen 14025) with 20 mM HEPES at pH 7.4. The cells incubate 30 minutes at 37 C and then 30 minutes at room temperature. The plates are transferred to the HAMAMATSU FDSS6000 where MIP-1alpha in 1% BSA is added at the EC80 final concentration. All plates must be read within 4 hours of the start of dye-loading. Wells+/−MIP-1alpha containing diluted DMSO instead of compound serve as the controls. Data are analyzed using Activity Base software.
In general terms: A change in cytosolic calcium serves as a functional read-out for many receptors and channels.
Turning to `CS(=O)(=O)c1cc(CNC(=O)c2nncc3c2cnn3-c2ccc(F)cc2)ccn1` [1-(4-Fluorophenyl)-1H-pyrazolo[3,4-d]pyridazine-4-carboxylic acid (2-methanesulfonyl-pyridin-4-ylmethyl)-amide], the IC50 amounted to 91 nM.

As to `C[C@H](NC(=O)c1nncc2c1cnn2-c1ccc(F)cc1)c1ccnc(S(C)(=O)=O)c1` [1-(4-Fluorophenyl)-1H-pyrazolo[3,4-d]pyridazine-4-carboxylic acid [(S)-1-(2-methanesulfonyl-pyridin-4-yl)-ethyl]-amide], the IC50 was 57 nM.

Consider `CC[C@H](NC(=O)c1nncc2c1cnn2-c1ccc(F)cc1)c1ccnc(S(C)(=O)=O)c1` [1-(4-Fluorophenyl)-1H-pyrazolo[3,4-d]pyridazine-4-carboxylic acid [(S)-1-(2-methanesulfonyl-pyridin-4-yl)-propyl]-amide], for which the IC50 stood at 3 nM.

With `CC[C@H](NC(=O)c1nncc2c1cnn2-c1ccc(F)cc1)c1ccc(S(C)(=O)=O)nc1` [1-(4-Fluorophenyl)-1H-pyrazolo[3,4-d]pyridazine-4-carboxylic acid [(S)-1-(6-methanesulfonyl-pyridin-3-yl)-propyl]-amide], the IC50 was determined as 44 nM.

`CS(=O)(=O)c1cccc(CNC(=O)c2cncc3c2ccn3-c2ccc(F)cc2)c1` [1-(4-Fluorophenyl)-1H-pyrrolo[2,3-c]pyridine-4-carboxylic acid 3-methanesulfonyl-benzylamide]: the IC50 was 565 nM.

Consider `CS(=O)(=O)c1cc(CNC(=O)c2cncc3c2ccn3-c2ccc(F)cc2)ccn1` [1-(4-Fluorophenyl)-1H-pyrrolo[2,3-c]pyridine-4-carboxylic acid (2-methanesulfonyl-pyridin-4-ylmethyl)-amide], for which the IC50 was found to be 455 nM.

In the case of `C[C@H](NC(=O)c1cncc2c1ccn2-c1ccc(F)cc1)c1ccnc(S(C)(=O)=O)c1` [1-(4-Fluorophenyl)-1H-pyrrolo[2,3-c]pyridine-4-carboxylic acid [(S)-1-(2-methanesulfonyl-pyridin-4-yl)-ethyl]-amide], the IC50 turned out to be 45 nM.

As for `CC[C@H](NC(=O)c1cncc2c1ccn2-c1ccc(F)cc1)c1ccnc(S(C)(=O)=O)c1` [1-(4-Fluorophenyl)-1H-pyrrolo[2,3-c]pyridine-4-carboxylic acid [(S)-1-(2-methanesulfonyl-pyridin-4-yl)-propyl]-amide], the IC50 is 2 nM.

Consider `CC[C@H](NC(=O)c1cncc2c1ccn2-c1ccc(F)cc1)c1cnc(S(C)(=O)=O)s1` [1-(4-Fluorophenyl)-1H-pyrrolo[2,3-c]pyridine-4-carboxylic acid [(S)-1-(2-methanesulfonyl-thiazol-5-yl)-propyl]-amide], for which the IC50 was 23 nM.

Regarding `CC[C@H](NC(=O)c1cncc2c1ccn2-c1ccc(F)cc1)c1cncc(S(C)(=O)=O)c1` [1-(4-Fluorophenyl)-1H-pyrrolo[2,3-c]pyridine-4-carboxylic acid [(S)-1-(5-methanesulfonyl-pyridin-3-yl)-propyl]-amide], the IC50 came out at 2 nM.

Consider `CC[C@H](NC(=O)c1cncc2c1ccn2-c1ccc(F)cc1)c1ccc(S(C)(=O)=O)nc1` [1-(4-Fluorophenyl)-1H-pyrrolo[2,3-c]pyridine-4-carboxylic acid [(S)-1-(6-methanesulfonyl-pyridin-3-yl)-propyl]-amide], for which the IC50 is 21 nM.

With `CNS(=O)(=O)c1ccc(CNC(=O)c2cc(O)cc3c2ccn3-c2ccc(F)cc2)cc1` [1-(4-Fluorophenyl)-6-hydroxy-1H-indole-4-carboxylic acid 4-methylsulfamoyl-benzylamide], the IC50 worked out at 1400 nM.

On to `CC[C@H](NC(=O)c1cc(S(C)(=O)=O)cc2c1ccn2-c1ccc(F)cc1)c1ccc(S(C)(=O)=O)nc1` [1-(4-Fluorophenyl)-6-methanesulfonyl-1H-indole-4-carboxylic acid [(S)-1-(6-methanesulfonyl-pyridin-3-yl)-propyl]-amide], for which the IC50 is 260 nM.

As a reminder, the IC50 is the midpoint of a concentration-inhibition curve.
